Experimental data from ChEMBL document CHEMBL2086270, “Rational Design, Synthesis, and SAR of a Novel Thiazolopyrimidinone Series of Selective PI3K-beta Inhibitors” (ACS Med Chem Lett, 2012).
The source made the active and inactive calls. The rule behind the calls is not given here.

Key:
Mus musculus [1] = assay: Inhibition of PI3K beta in human PTEN-deficient PC3 cells xenografted in nude mouse assessed as inhibition of AKT Ser473 phosphorylation at 100 mg/kg at 6 hrs; assay type: functional; settings: PC-3, 6 h
[2] = target: T1, Phosphatidylinositol 4,5-bisphosphate 3-kinase catalytic subunit beta isoform (Homo sapiens, UniProt P42338); assay: Inhibition of PI3K beta in human PTEN-deficient MDA-MB-468 cells assessed as inhibition of Akt Ser473 phosphorylation; assay type: cell-based
T1 sequence (P42338 whole entry, canonical isoform): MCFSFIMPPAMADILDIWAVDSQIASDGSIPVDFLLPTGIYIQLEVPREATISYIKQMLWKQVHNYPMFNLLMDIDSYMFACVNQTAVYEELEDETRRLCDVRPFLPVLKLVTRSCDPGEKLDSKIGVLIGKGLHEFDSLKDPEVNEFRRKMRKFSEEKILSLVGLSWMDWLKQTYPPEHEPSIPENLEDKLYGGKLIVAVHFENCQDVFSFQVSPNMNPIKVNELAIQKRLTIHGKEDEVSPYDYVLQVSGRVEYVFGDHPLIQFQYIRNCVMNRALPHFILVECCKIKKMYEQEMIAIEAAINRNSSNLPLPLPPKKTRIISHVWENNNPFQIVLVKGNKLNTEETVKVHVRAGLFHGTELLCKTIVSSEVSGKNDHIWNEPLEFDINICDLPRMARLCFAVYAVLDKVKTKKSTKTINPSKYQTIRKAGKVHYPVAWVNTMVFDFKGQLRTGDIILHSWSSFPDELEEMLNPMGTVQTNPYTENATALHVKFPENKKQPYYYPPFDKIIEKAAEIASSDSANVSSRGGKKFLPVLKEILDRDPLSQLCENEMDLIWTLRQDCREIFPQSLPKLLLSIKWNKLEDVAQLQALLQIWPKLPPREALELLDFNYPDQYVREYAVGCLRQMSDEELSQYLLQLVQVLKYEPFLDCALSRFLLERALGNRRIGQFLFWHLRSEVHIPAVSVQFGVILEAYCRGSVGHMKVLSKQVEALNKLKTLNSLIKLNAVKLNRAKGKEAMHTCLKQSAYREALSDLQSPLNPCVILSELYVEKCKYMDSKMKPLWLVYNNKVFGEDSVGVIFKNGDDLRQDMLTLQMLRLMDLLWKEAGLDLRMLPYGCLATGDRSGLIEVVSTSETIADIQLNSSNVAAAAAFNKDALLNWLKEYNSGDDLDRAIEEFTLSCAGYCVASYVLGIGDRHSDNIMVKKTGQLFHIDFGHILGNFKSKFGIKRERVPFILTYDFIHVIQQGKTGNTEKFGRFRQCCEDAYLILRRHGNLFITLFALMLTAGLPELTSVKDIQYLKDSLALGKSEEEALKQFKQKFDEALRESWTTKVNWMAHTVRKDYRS

[3] = target: T2, Phosphatidylinositol 4,5-bisphosphate 3-kinase catalytic subunit delta isoform (Homo sapiens, UniProt O00329); assay: Inhibition of PI3K delta by continuous TR-FRET assay
T2 sequence (O00329 whole entry): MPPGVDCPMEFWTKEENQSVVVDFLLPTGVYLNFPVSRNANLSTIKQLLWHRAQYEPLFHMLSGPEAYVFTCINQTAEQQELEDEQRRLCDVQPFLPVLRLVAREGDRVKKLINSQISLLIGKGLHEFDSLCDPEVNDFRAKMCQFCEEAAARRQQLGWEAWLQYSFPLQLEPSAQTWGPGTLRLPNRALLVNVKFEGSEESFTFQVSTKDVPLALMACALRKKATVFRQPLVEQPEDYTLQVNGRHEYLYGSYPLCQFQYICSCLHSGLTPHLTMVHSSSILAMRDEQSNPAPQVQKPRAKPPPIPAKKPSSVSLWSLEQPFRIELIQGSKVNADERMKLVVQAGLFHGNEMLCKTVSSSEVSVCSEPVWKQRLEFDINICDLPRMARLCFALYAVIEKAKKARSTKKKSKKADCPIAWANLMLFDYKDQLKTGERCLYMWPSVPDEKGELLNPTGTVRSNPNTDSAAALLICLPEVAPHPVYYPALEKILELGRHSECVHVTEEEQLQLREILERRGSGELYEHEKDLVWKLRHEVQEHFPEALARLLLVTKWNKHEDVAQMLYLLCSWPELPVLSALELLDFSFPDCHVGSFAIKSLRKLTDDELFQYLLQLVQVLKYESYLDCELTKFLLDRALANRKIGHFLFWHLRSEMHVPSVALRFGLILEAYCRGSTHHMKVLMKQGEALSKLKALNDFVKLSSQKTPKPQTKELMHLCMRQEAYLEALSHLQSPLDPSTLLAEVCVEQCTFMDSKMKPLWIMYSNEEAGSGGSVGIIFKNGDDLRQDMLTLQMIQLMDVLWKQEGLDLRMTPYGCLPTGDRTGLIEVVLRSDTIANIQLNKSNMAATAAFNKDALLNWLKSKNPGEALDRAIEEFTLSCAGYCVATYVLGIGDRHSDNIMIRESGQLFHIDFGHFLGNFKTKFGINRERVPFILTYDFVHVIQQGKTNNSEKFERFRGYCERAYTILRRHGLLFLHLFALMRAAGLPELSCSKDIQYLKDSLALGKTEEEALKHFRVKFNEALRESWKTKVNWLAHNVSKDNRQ

Mus musculus [4] = assay: Inhibition of PI3K beta in human PTEN-deficient PC3 cells xenografted in nude mouse assessed as inhibition of AKT Ser473 phosphorylation at 300 mg/kg at 4 hrs; assay type: functional; settings: PC-3, 4 h
Mus musculus [5] = assay: Dose normalized AUC in CD mouse at 100 mg/kg, po; assay type: ADME, organism-based; design: dose 100 mg/kg, route oral; settings: in vivo
Mus musculus [6] = assay: Inhibition of PI3K beta in human PTEN-deficient PC3 cells xenografted in nude mouse assessed as inhibition of AKT Ser473 phosphorylation at 100 mg/kg at 1 hr; assay type: functional; settings: PC-3, 1 h
Mus musculus [7] = assay: Inhibition of PI3K beta in human PTEN-deficient PC3 cells xenografted in nude mouse assessed as inhibition of AKT Ser473 phosphorylation at 100 mg/kg at 4 hrs; assay type: functional; settings: PC-3, 4 h
Mus musculus [8] = assay: Inhibition of PI3K beta in human PTEN-deficient PC3 cells xenografted in nude mouse assessed as inhibition of AKT Ser473 phosphorylation at 300 mg/kg at 24 hrs; assay type: functional; settings: PC-3, 24 h
[9] = target: Phosphatidylinositol 4,5-bisphosphate 3-kinase catalytic subunit gamma isoform (Homo sapiens, UniProt P48736); assay: Inhibition of PI3K gamma by continuous TR-FRET assay
Sequence of Phosphatidylinositol 4,5-bisphosphate 3-kinase catalytic subunit gamma isoform (P48736 whole entry, canonical isoform): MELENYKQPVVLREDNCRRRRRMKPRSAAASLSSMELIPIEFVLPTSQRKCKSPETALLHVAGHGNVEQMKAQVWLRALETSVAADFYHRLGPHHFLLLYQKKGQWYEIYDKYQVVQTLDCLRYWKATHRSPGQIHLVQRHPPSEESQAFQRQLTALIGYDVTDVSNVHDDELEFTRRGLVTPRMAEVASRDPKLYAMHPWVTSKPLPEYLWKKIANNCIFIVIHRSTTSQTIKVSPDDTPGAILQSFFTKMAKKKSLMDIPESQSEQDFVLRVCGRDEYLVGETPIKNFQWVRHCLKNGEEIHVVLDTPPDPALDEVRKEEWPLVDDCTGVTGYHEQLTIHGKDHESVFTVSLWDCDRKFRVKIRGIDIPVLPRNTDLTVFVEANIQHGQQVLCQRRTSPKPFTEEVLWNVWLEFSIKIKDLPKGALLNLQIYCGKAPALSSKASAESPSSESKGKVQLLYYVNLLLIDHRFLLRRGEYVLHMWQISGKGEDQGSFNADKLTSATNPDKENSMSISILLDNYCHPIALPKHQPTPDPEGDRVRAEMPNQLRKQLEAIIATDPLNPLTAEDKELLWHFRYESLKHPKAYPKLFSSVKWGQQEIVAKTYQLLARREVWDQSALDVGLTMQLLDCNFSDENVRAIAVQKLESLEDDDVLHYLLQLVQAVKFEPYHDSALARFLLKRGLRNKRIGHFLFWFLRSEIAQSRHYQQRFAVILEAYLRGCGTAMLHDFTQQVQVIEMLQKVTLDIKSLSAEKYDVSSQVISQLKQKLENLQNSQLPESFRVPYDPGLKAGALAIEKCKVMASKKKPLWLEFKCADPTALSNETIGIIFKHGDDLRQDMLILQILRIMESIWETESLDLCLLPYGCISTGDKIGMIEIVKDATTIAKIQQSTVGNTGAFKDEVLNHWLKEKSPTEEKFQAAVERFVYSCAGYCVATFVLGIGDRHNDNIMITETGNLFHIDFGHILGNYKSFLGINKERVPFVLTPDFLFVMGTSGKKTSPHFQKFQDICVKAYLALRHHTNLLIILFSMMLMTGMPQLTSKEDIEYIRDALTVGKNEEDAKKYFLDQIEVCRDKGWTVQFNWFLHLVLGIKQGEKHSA

Mus musculus [10] = assay: Inhibition of PI3K beta in human PTEN-deficient PC3 cells xenografted in nude mouse assessed as inhibition of AKT Ser473 phosphorylation at 300 mg/kg at 1 hr; assay type: functional; settings: PC-3, 1 h
[11] = Half life in CD mouse at 0.3 mg/kg, iv; assay type: ADME, organism-based; design: dose 0.3 mg/kg, route intravenous; settings: in vivo
PC-3 = assay: Antitumor activity against human PC3 cells xenografted in nude mouse assessed as tumor growth inhibition at 100 and 300 mg/kg administered QD for 21 days relative to vehicle-treated control; assay type: functional, organism-based; design: dose 300 mg/kg
[12] = Volume of distribution at steady state in CD mouse at 0.3 mg/kg, iv; assay type: ADME, organism-based; design: dose 0.3 mg/kg, route intravenous; settings: in vivo, read-out: Vdss
[13] = target: T1, Phosphatidylinositol 4,5-bisphosphate 3-kinase catalytic subunit beta isoform; assay: Inhibition of PI3K beta by continuous TR-FRET assay
Mus musculus [14] = assay: Inhibition of PI3K beta in human PTEN-deficient PC3 cells xenografted in nude mouse assessed as inhibition of AKT Ser473 phosphorylation at 300 mg/kg at 6 hrs; assay type: functional; settings: PC-3, 6 h
Mus musculus [15] = assay: Inhibition of PI3K beta in human PTEN-deficient PC3 cells xenografted in nude mouse assessed as inhibition of AKT Ser473 phosphorylation at 300 mg/kg at 10 hrs; assay type: functional; settings: PC-3, 10 h
MDA-MB-468 = assay: Antiproliferative activity against PTEN-deficient human MDA-MB-468 cells; assay type: functional
[16] = Clearance in CD mouse at 0.3 mg/kg, iv; assay type: ADME, organism-based; design: dose 0.3 mg/kg, route intravenous; settings: in vivo
Nucleic Acid = assay: Ratio of drug uptake in tumor at 300 mg/kg to drug uptake in tumor at 100 mg/kg in nude mouse bearing PC3 cells; assay type: functional, organism-based; settings: Neoplasm, PC-3
Blood = assay: Ratio of drug uptake in blood at 300 mg/kg to drug uptake in blood at 100 mg/kg in nude mouse bearing PC3 cells; assay type: functional, PC-3
[17] = target: Phosphatidylinositol 4,5-bisphosphate 3-kinase catalytic subunit alpha isoform (Homo sapiens, UniProt P42336); assay: Inhibition of PI3K alpha by continuous TR-FRET assay
Sequence of Phosphatidylinositol 4,5-bisphosphate 3-kinase catalytic subunit alpha isoform (P42336 whole entry, canonical isoform): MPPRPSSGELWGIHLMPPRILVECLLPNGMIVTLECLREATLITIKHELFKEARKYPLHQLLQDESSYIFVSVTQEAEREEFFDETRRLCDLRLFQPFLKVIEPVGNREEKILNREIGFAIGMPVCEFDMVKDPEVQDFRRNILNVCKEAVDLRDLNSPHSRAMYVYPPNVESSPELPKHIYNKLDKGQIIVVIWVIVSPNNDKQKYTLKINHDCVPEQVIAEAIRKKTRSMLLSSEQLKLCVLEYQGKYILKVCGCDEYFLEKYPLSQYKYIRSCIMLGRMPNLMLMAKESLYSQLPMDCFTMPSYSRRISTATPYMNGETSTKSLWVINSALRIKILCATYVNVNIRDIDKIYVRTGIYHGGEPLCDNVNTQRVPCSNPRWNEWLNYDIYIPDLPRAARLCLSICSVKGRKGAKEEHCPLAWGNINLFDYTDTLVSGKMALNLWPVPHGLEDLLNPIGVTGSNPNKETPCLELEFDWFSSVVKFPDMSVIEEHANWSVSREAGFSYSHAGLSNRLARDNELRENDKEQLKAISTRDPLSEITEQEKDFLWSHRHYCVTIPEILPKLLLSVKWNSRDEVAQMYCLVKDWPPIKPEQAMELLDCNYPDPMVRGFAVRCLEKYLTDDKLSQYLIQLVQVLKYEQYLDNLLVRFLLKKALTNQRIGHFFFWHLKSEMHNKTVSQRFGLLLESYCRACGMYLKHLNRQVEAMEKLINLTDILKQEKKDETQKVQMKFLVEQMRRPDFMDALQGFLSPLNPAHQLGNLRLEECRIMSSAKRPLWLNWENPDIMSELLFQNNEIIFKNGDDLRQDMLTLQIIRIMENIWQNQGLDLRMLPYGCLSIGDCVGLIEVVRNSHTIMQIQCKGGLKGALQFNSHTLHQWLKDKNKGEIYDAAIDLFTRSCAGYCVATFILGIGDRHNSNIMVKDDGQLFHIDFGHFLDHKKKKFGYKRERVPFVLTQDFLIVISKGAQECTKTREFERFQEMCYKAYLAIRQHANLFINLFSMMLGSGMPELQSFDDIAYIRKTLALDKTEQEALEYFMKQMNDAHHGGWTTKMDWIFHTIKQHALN

Mus musculus [18] = assay: Inhibition of PI3K beta in human PTEN-deficient PC3 cells xenografted in nude mouse assessed as inhibition of AKT Ser473 phosphorylation at 300 mg/kg at 8 hrs; assay type: functional; settings: PC-3, 8 h
Mus musculus [19] = assay: Inhibition of PI3K beta in human PTEN-deficient PC3 cells xenografted in nude mouse assessed as inhibition of AKT Ser473 phosphorylation at 300 mg/kg at 2 hrs; assay type: functional; settings: PC-3, 2 h
Mus musculus [20] = assay: Inhibition of PI3K beta in human PTEN-deficient PC3 cells xenografted in nude mouse assessed as inhibition of AKT Ser473 phosphorylation at 100 mg/kg at 2 hrs; assay type: functional; settings: PC-3, 2 h
Mus musculus [21] = assay: Inhibition of PI3K beta in human PTEN-deficient PC3 cells xenografted in nude mouse assessed as inhibition of AKT Ser473 phosphorylation at 100 mg/kg at 10 hrs; assay type: functional; settings: PC-3, 10 h
Mus musculus [22] = assay: Inhibition of PI3K beta in human PTEN-deficient PC3 cells xenografted in nude mouse assessed as inhibition of AKT Ser473 phosphorylation at 100 mg/kg at 8 hrs; assay type: functional; settings: PC-3, 8 h
Mus musculus [23] = assay: Toxicity in nude mouse xenografted with human PC3 cells assessed as body weight loss at 100 and 300 mg/kg administered QD for 21 days; assay type: organism-based, PC-3; design: dose 300 mg/kg; settings: in vivo, 504 h
Mus musculus [24] = assay: Inhibition of PI3K beta in human PTEN-deficient PC3 cells xenografted in nude mouse assessed as inhibition of AKT Ser473 phosphorylation at 100 and 300 mg/kg; assay type: functional, organism-based; design: dose 300 mg/kg; settings: PC-3, TDE = time-dependent effect
Mus musculus [25] = assay: Inhibition of PI3K beta in human PTEN-deficient PC3 cells xenografted in nude mouse assessed as inhibition of AKT Ser473 phosphorylation at 100 mg/kg at 24 hrs; assay type: functional; settings: PC-3, 24 h
[26] = Oral bioavailability in CD mouse at 100 mg/kg; assay type: ADME, organism-based; settings: in vivo

EC50 [2]: 24 nM
IC50 [3]: 20 nM
AUC/dose (Mus musculus [5]): 278 ng/(hr.mL.mg.kg)
IC50 [9]: 790 nM
half-life [11]: 1.2 h
Vd [12]: 2.8 L/kg
IC50 [13]: 0.6 nM
GI50 (MDA-MB-468): 103 nM
clearance [16]: 29.6 mL/min/kg
IC50 [17]: 2500 nM
bioavailability [26]: 49%
Structure (SMILES): Cc1c(Cn2c(C)nc(=O)c3sc(N4CCOCC4)nc32)cccc1C(F)(F)F
inhibition in vivo at 100 mg/kg (Mus musculus [1]): 64%
inhibition in vivo at 300 mg/kg (Mus musculus [4]): 63%
inhibition in vivo at 100 mg/kg (Mus musculus [6]): 63%
inhibition in vivo at 100 mg/kg (Mus musculus [7]): 58%
inhibition in vivo at 300 mg/kg (Mus musculus [8]): -1%
inhibition in vivo at 300 mg/kg (Mus musculus [10]): 68%
TGI (PC-3): Active
inhibition in vivo at 300 mg/kg (Mus musculus [14]): 64%
inhibition in vivo at 300 mg/kg (Mus musculus [15]): 24%
Ratio (Nucleic Acid): 1.2
Ratio (Blood): 1.2
inhibition in vivo at 300 mg/kg (Mus musculus [18]): 48%
inhibition in vivo at 300 mg/kg (Mus musculus [19]): 72%
inhibition in vivo at 100 mg/kg (Mus musculus [20]): 53%
inhibition in vivo at 100 mg/kg (Mus musculus [21]): 33%
inhibition in vivo at 100 mg/kg (Mus musculus [22]): 46%
Activity (Mus musculus [23]): Non-toxic
inhibition (Mus musculus [24]): tde
inhibition in vivo at 100 mg/kg (Mus musculus [25]): -17%
